Test results published in US10117430B2, “Malononitrile compounds for controlling animal pests” (BASF SE, priority 2012, dated 2018).

Experiments:
Assay type in all cases: in vivo
[1] = tested on: Yellow Fever Mosquito (Aedes aegypti); experiment: whole plant or invertebrate; conditions: 48 h, in comparison with untreated controls, larval mortality after 2 days
Method: B.12 Yellow Fever Mosquito (Aedes aegypti)
For evaluating control of yellow fever mosquito (Aedes aegypti) the test unit consisted of 96-well-microtiter plates containing 200 μl of tap water per well and 5-15 freshly hatched A. aegypti larvae. The compounds or mixtures were formulated using a solution containing 75% water and 25% DMSO. Different concentrations of formulated compounds or mixtures were sprayed onto the insect diet at 2.5 μl, using a custom built micro atomizer, at two replications. After application, microtiter plates were incubated at 28±1° C., 80±5% relative humidity for 2 days. Larval mortality was then visually assessed.

[2] = tested on: Tobacco Budworm (Heliothis virescens); experiment: B.8 Tobacco budworm test on sprayed cotton plants; conditions: 96 h, in comparison with untreated controls, 4 days after treatment
Method: B.8 Tobacco Budworm (Heliothis virescens) I
The active compounds were formulated in cyclohexanone as a 10,000 ppm solution supplied in tubes. The tubes were inserted into an automated electrostatic sprayer equipped with an atomizing nozzle and they served as stock solutions for which lower dilutions were made in 50% acetone:50% water (v/v). A nonionic surfactant (Kinetic®) was included in the solution at a volume of 0.01% (v/v). Cotton plants were grown 2 plants to a pot and selected for treatment at the cotyledon stage. Test solutions were sprayed onto the foliage by an automated electrostatic plant sprayer equipped with an atomizing spray nozzle. The plants were dried in the sprayer fume hood and then removed from the sprayer. Each pot was placed into perforated plastic bags with a zip closure. About 10 to 11 budworm larvae were placed into the bag and the bags zipped closed. Test plants were maintained in a growth room at about 25° C. and about 20-40% relative humidity for 4 days, avoiding direct exposure to fluorescent light (24 hour photoperiod) to prevent trapping of heat inside the bags. Mortality and reduced feeding were assessed 4 days after treatment, compared to untreated control plants.

[3] = tested on: Orchid Thrips (Dichromothrips corbetti); experiment: B.4 Orchid thrips floral-immersion test; conditions: 96 h, in comparison with untreated controls, after 4 days
Method: B.4 Orchid Thrips (Dichromothrips Corbetti)
Dichromothrips corbetti adults used for bioassay are obtained from a colony maintained continuously under laboratory conditions. For testing purposes, the test compound is diluted to a concentration of 300 ppm (wt compound: vol diluent) in a 1:1 mixture of acetone:water (vol:vol), plus 0.01% vol/vol Kinetic® surfactant. Thrips potency of each compound is evaluated by using a floral-immersion technique. Plastic petri dishes are used as test arenas. All petals of individual, intact orchid flowers are dipped into treatment solution and allowed to dry. Treated flowers are placed into individual petri dishes along with 10-15 adult thrips. The petri dishes are then covered with lids. All test arenas are held under continuous light and a temperature of about 28° C. for duration of the assay. After 4 days, the numbers of live thrips are counted on each flower, and along inner walls of each petri dish. The level of thrips mortality is extrapolated from pre-treatment thrips numbers.

[4] = tested on: Cowpea Aphid (Aphis craccivora); experiment: B.1 Cowpea aphid spray test on potted cowpea plants; conditions: in comparison with untreated controls, population reduction assessed after 24, 72 and 120 hours
Method: B.1 Cowpea Aphid (Aphis craccivora)
The active compounds were formulated in 50:50 (v/v) acetone:water. The test solution was prepared at the day of use. Potted cowpea plants colonized with approximately 100-150 aphids of various stages were sprayed after the pest population has been recorded. Population reduction was assessed after 24, 72, and 120 hours.

[5] = tested on: Green Soldier Stink Bug (Nezara viridula); experiment: B.15 Green soldier stink bug test on sprayed soybean pods; conditions: 120 h, in comparison with untreated controls, after 5 days
Method: B.15 Green Soldier Stink Bug (Nezara viridula)
The active compound is dissolved at the desired concentration in a mixture of 1:1 (vol:vol) distilled water:aceteone. Surfactant (Kinetic HV) is added at a rate of 0.01% (vol/vol). The test solution is prepared at the day of use. Soybean pods were placed in microwavable plastic cups lined with moist filter paper and inoculated with ten 3rd instar N. viridula. Using a hand atomizer, an approximately 2 ml solution is sprayed into each cup. Treated cups were kept at about 28-29° C. and relative humidity of about 50-60%. Percent mortality was recorded after 5 days.

[6] = tested on: Rice brown plant hopper (Nilaparvata lugens); experiment: B.11 Rice brown plant hopper test on sprayed rice seedlings; conditions: in comparison with untreated controls, after 72 hours
Method: B.11 Rice brown plant hopper (Nilaparvata lugens)
Rice seedlings were cleaned and washed 24 hours before spraying. The active compounds were formulated in 50:50 acetone:water (vol:vol) and 0.1% vol/vol surfactant (EL 620) was added. Potted rice seedlings were sprayed with 5 ml test solution, air dried, placed in cages and inoculated with 10 adults. Treated rice plants were kept at about 28-29° C. and relative humidity of about 50-60%. Percent mortality was recorded after 72 hours.

[7] = tested on: Boll Weevil (Anthonomus grandis); experiment: B.9 Boll weevil microtiter diet test, egg and larval mortality; conditions: 120 h, in comparison with untreated controls, egg and larval mortality after 5 days
Method: B.9 Boll Weevil (Anthonomus grandis)
(§1) For evaluating control of boll weevil (Anthonomus grandis) the test unit consisted of 24-well-microtiter plates containing an insect diet and 20-30 A. grandis eggs. The compounds were formulated using a solution containing 75% v/v water and 25% v/v DMSO. Different concentrations of formulated compounds were sprayed onto the insect diet at 20 μl, using a custom built micro atomizer, at two replications. After application, microtiter plates were incubated at about 23±1° C. and about 50±5% relative humidity for 5 days. Egg and larval mortality was then visually assessed.

[8] = tested on: Vetch Aphid (Megoura viciae); experiment: B.7 Vetch aphid test on broad bean leaf disks; conditions: foliar, 120 h, in comparison with untreated controls, 5 days
Method: B.7 Vetch Aphid (Megoura viciae)
For evaluating control of vetch aphid (Megoura viciae) through contact or systemic means the test unit consisted of 24-well-microtiter plates containing broad bean leaf disks. The compounds were formulated using a solution containing 75% v/v water and 25% v/v DMSO. Different concentrations of formulated compounds were sprayed onto the leaf disks at 2.5 μl, using a custom built micro atomizer, at two replications. After application, the leaf disks were air-dried and 5-8 adult aphids placed on the leaf disks inside the microtiter plate wells. The aphids were then allowed to suck on the treated leaf disks and incubated at about 23±1° C. and about 50±5% relative humidity for 5 days. Aphid mortality and fecundity was then visually assessed.

[9] = tested on: Silverleaf Whitefly (Bemisia argentifolii); experiment: B.5 Silverleaf whitefly test on sprayed cotton plants; conditions: 72 h, in comparison with untreated controls, 3 days after treatment
Method: B.5 Silverleaf Whitefly (Bemisia argentifolii)
The active compounds were formulated in cyclohexanone as a 10,000 ppm solution supplied in 1.3 ml ABgene® tubes. These tubes were inserted into an automated electrostatic sprayer equipped with an atomizing nozzle and they served as stock solutions for which lower dilutions were made in 50% acetone:50% water (v/v). A nonionic surfactant (Kinetic®) was included in the solution at a volume of 0.01% (v/v). Cotton plants at the cotyledon stage (one plant per pot) were sprayed by an automated electrostatic plant sprayer equipped with an atomizing spray nozzle. The plants were dried in the sprayer fume hood and then removed from the sprayer. Each pot was placed into a plastic cup and 10 to 12 whitefly adults (approximately 3-5 days old) were introduced. The insects were collected using an aspirator and 0.6 cm, nontoxic Tygon® tubing (R-3603) connected to a barrier pipette tip. The tip, containing the collected insects, was then gently inserted into the soil containing the treated plant, allowing insects to crawl out of the tip to reach the foliage for feeding. Cups were covered with a reusable screened lid (150-micron mesh polyester screen PeCap from Tetko, Inc.). Test plants were maintained in a growth room at 25° C. and 20-40% relative humidity for 3 days, avoiding direct exposure to fluorescent light (24 hour photoperiod) to prevent trapping of heat inside the cup. Mortality was assessed 3 days after treatment, compared to untreated control plants.

[10] = tested on: Green Peach Aphid (Myzus persicae); experiment: B.3 Green peach aphid systemic test, artificial diet under membrane; conditions: 72 h, concentration of the test solution 2500 mg/L, 3 days
Source text: B.3 Green Peach Aphid (Myzus persicae)
For evaluating control of green peach aphid (Myzus persicae) through systemic means the test unit consisted of 96-well-microtiter plates containing liquid artificial diet under an artificial membrane. The compounds were formulated using a solution containing 75% v/v water and 25% v/v DMSO. Different concentrations of formulated compounds were pipetted into the aphid diet, using a custom built pipetter, at two replications. After application, 5-8 adult aphids were placed on the artificial membrane inside the microtiter plate wells. The aphids were then allowed to suck on the treated aphid diet and incubated at about 23±1° C. and about 50±5% relative humidity for 3 days. Aphid mortality and fecundity was then visually assessed.

[11] = tested on: Southern Armyworm (Spodoptera eridania); experiment: B.6 Southern armyworm test on sprayed lima bean plants; conditions: 96 h, 500 ppm, in comparison with untreated controls, 4 days after treatment
Method: B.6 Southern Armyworm (Spodoptera eridania)
The active compounds were formulated in cyclohexanone as a 10,000 ppm solution supplied in 1.3 ml ABgene® tubes. These tubes were inserted into an automated electrostatic sprayer equipped with an atomizing nozzle and they served as stock solutions for which lower dilutions were made in 50% acetone:50% water (v/v). A nonionic surfactant (Kinetic®) was included in the solution at a volume of 0.01% (v/v). Lima bean plants (variety Sieva) were grown 2 plants to a pot and selected for treatment at the 1st true leaf stage. Test solutions were sprayed onto the foliage by an automated electrostatic plant sprayer equipped with an atomizing spray nozzle. The plants were dried in the sprayer fume hood and then removed from the sprayer. Each pot was placed into perforated plastic bags with a zip closure. Ten to 11 armyworm larvae were placed into the bag and the bags zipped closed. Test plants were maintained in a growth room at 25° C. and 20-40% relative humidity for 4 days, avoiding direct exposure to fluorescent light (24 hour photoperiod) to prevent trapping of heat inside the bags. Mortality and reduced feeding were assessed 4 days after treatment, compared to untreated control plants.

[12] = tested on: Red Spider Mite (Tetranychus kanzawai); experiment: B.10 Red spider mite test on sprayed cowpea beans; conditions: in comparison with untreated controls, 72 hours after treatment
Method: B.10 Red Spider Mite (Tetranychus kanzawai)
The active compound is dissolved at the desired concentration in a mixture of 1:1 (vol:vol) distilled water:acetone. Add surfactant (Alkamuls® EL 620) at the rate of 0.1% (vol/vol). The test solution is prepared at the day of use. Potted cowpea beans of 7-10 days of age were cleaned with tap water and sprayed with 5 ml of the test solution using air driven hand atomizer. The treated plants were allowed to air dry and afterwards inculated with 20 or more mites by clipping a cassava leaf section with known mite population. Treated plants were placed inside a holding room at about 25-27° C. and about 50-60% relative humidity. Percent mortality was assessed 72 hours after treatment.

[13] = tested on: Mediterranean Fruitfly (Ceratitis capitata); experiment: B.2 Mediterranean fruitfly microtiter diet test, egg and larval mortality; conditions: 120 h, in comparison with untreated controls, egg and larval mortality after 5 days
Method: B.2 Mediterranean Fruitfly (Ceratitis capitata)
as §1, with “Mediterranean fruitfly (Ceratitis capitata)” for “boll weevil (Anthonomus grandis)”, “microtiter” for “24-well-microtiter”, “50-80 C. capitata” for “20-30 A. grandis”, “5” for “20”, “28±1°” for “23±1°”, “80±5%” for “50±5%”

N#CC(C#N)(Cc1ccc(C(F)(F)F)nc1)c1ccccc1 [II-3]
≥ 75%: mortality at 2500 ppm [1] | mortality at 2500 ppm [2] | mortality at 500 ppm [3] | mortality at 500 ppm [4] | mortality at 500 ppm [5] | mortality at 300 ppm [6] | mortality at 2500 ppm [7] | mortality at 2500 ppm [8]

N#CC(C#N)(Cc1ccc(F)nc1F)c1ccccc1 [II-50]
≥ 75%: mortality at 2500 ppm [1] | mortality at 2500 ppm [2] | mortality at 500 ppm [3]

N#CC(C#N)(Cc1cccnc1)c1ccccc1 [II-31]
≥ 75%: mortality at 2500 ppm [2] | mortality at 500 ppm [9] | mortality at 2500 ppm [7]

N#CC(C#N)(Cc1ccc(F)nc1F)c1cc(F)cc(F)c1 [II-52]
≥ 75%: mortality at 2500 ppm [2] | mortality at 2500 µg/mL [10] | mortality at 500 ppm [3] | mortality at 2500 ppm [7]

N#CC(C#N)(Cc1ccc(F)cn1)c1ccccc1 [II-11]
≥ 75%: mortality at 2500 ppm [2] | mortality at 2500 µg/mL [10]

N#CC(C#N)(Cc1ncc(C(F)(F)F)cn1)c1ccccc1 [II-16]
≥ 75%: mortality at 2500 ppm [1] | mortality at 500 ppm [11] | mortality at 2500 µg/mL [10] | mortality at 500 ppm [3] | mortality at 500 ppm [4] | mortality at 500 ppm [9] | mortality at 300 ppm [6] | mortality at 2500 ppm [7] | mortality at 2500 ppm [8] | mortality at 500 ppm [12]

N#CC(C#N)(Cc1cnc(C(F)(F)F)cn1)c1ccccc1 [II-26]
≥ 75%: mortality at 2500 ppm [1] | mortality at 2500 ppm [13] | mortality at 2500 ppm [2] | mortality at 500 ppm [3] | mortality at 500 ppm [4] | mortality at 500 ppm [9] | mortality at 2500 ppm [7] | mortality at 2500 ppm [8] | mortality at 500 ppm [12]
